Experimental data: PMC12051620, “Molecular basis underlying the specificity of an antagonist AA92593 for mammalian melanopsins” (The Journal of Biological Chemistry, 2025)

Columns and labels:
[1] = test system: Xenopus Opn4x C94^2.61F/T188^ECL2S/A269^6.52S mutant; test: GsX GloSensor assay with Gsα/q11; assay type: cell-based; details: 16.7 μM AA92593, COS-1 cells
Source text: (§1) The GsX GloSensor assay using Gsα/q11 of Xenopus Opn4x and chicken Opn4-1 detected the light-dependent Gq activation in both non-mammalian-type melanopsins (Fig. 6, A and D). […] The ineffectiveness of AA92593 is consistent with the fact that Phe-94^2.61, Ser-188^ECL2, and Ser-269^6.52 are not conserved among non-mammalian-type melanopsins (Figs. 2A, S2 and S3). If these three residues are important for the antagonistic effect against melanopsins, the introduction of Phe-94^2.61/Ser-188^ECL2/Ser-269^6.52 into the non-mammalian-type melanopsins would make them susceptible to AA92593. As expected, the substitutions of C94^2.61F/T188S^ECL2/A269^6.52S in Xenopus Opn4x and chicken Opn4-1 increased their sensitivity to AA92593 by ∼49% and ∼22%, respectively (Fig. 6, B and E, G–I). […]
(§2) For GloSensor assay, opsins, GloSensor assay sensor (coded by pGlo-22F), and NanoBiT-tagged G proteins were transiently expressed in COS-1 cells (kindly provided from Dr David Farrens, Oregon Health and Science University) using PEI as described previously ([24], [52]). […] For GFP-fluorescence microscopy, a 35-mm cell culture dish (IWAKI) was transfected with 2 μg melanopsin-GFP plasmid and 8 μg PEI in 400 μl Opti-mem and 1.2 ml D-MEM. […]

[2] = test system: chicken Opn4-1 C94^2.61F/T188^ECL2S/A269^6.52S mutant; test: GsX GloSensor assay with Gsα/q11; assay type: cell-based; details: 16.7 μM AA92593, COS-1 cells
Source text: as §1, §2

COc1ccc(S(=O)(=O)N2CCCCC2)cc1C [AA92593]
increase in sensitivity to AA92593 vs WT [1]: ~49%
increase in sensitivity to AA92593 vs WT [2]: ~22%
